Source: EP0341681B1, “6-Phenoxymethyl-4-hydroxytetrahydropyran-2-ones and 6-thiophenoxymethyl-4-hydroxytetrahydropyran-2-ones, the corresponding dihydrocarboxylic-acid derivatives, salts and esters, process for preparing these compounds, their use as medicines, pharmaceutical compositions and phenols and thiophenols” (HOECHST AKTIENGESELLSCHAFT, priority 1988, dated 1989)
Read-outs that look alike come from different tables or passages of the source.

Columns and labels:
[1] = target: T1, HMG-CoA-Reduktase (Rattus norvegicus, UniProt P51639); assay: Inhibition of HMG-CoA reductase activity in solubilised enzyme preparations from rat liver microsomes; format: biochemical, Ratten; conditions: sodium salts of the dihydroxycarboxylic acids of formula II; substrate (S,R) 14C-HMG-CoA; mean of 3 parallel samples; read-out: IC₅₀
T1 construct: solubilisierten Enzympräparationen aus Ratten-Lebermikrosomen; from tissue; host or cells: rat liver microsomes (cholestyramine-induced rats)
T1 sequence (P51639 1-887): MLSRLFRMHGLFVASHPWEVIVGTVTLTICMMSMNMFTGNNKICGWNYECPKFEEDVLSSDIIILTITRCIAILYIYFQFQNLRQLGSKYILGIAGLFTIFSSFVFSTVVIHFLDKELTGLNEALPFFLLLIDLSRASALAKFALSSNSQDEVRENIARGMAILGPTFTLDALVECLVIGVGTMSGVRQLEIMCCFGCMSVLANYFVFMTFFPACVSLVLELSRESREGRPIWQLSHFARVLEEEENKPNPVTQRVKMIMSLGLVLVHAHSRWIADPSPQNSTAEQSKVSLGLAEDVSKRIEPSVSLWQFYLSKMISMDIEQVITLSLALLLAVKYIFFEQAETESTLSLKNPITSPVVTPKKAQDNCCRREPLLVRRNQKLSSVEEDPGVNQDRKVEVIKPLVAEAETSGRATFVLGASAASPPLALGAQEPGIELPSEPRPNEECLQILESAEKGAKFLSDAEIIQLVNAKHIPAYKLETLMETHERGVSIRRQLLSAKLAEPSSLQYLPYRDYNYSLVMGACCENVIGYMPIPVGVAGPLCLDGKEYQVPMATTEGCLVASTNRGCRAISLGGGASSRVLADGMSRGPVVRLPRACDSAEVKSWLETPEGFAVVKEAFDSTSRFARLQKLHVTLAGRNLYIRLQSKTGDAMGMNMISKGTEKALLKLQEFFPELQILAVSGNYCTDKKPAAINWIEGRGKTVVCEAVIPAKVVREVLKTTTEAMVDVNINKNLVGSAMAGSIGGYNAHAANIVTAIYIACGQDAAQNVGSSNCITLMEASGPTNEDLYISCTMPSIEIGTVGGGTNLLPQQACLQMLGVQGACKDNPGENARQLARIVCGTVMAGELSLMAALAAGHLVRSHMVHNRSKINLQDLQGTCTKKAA
Description: Die HMG-CoA-Reduktase-Aktivität der Natriumsalze der erfindungsgemäßen Verbindungen der Formel II wurde in zwei Testsystemen bestimmt 1) Inhibierung der HMG-CoA-Reduktase-Aktivität an solubilisierten Enzympräparationen aus Ratten-Lebermikrosomen Die HMG-CoA-Reduktase-Aktivität wurde an solubilisierten Enzympräparationen aus Lebermikrosomen von Ratten gemessen, die nach Umstellung im Tag-Nacht-Rhythmus mit Cholestyramin (®Cuemid) induziert wurden. Als Substrat diente (S,R) ¹⁴C-HMG-CoA, die Konzentration von NADPH wurde während der Inkubation durch ein regenerierendes System aufrechterhalten. Die Abtrennung von ¹⁴C-Mevalonat von Substrat und anderen Produkten (z.B. ¹⁴C-HMG) erfolgte über Säulenelution, wobei das Elutionsprofil jeder Einzelprobe ermittelt wurde. Auf die ständige Mitführung von ³H-Mevalonat wurde verzichtet, weil es sich bei der Bestimmung um die Relativangabe der Hemmwirkung handelt. In einer Versuchsreiche wurden jeweils die enzymfreie Kontrolle, der enzymhaltige Normalansatz (= 100 %) und solche mit Präparatezusätzen zusammen behandelt. Jeder Einzelwert wurde als Mittelwert aus 3 Parallelproben gebildet. Die Signifikanz der Mittelwertsunterschiede zwischen präparatefreien und präparatehaltigen Proben wurde nach dem t-Test beurteilt. Nach der oben beschriebenen Methode wurden von den erfindungsgemäßen Verbindungen z.B. folgende Hemmwerte auf die HMG-CoA-Reduktase ermittelt (IC₅₀- (mol/l); molare Konzentration der Verbindung pro Liter, die für eine 50 %ige Hemmung erforderlich ist) Tabelle 1

[2] = target: T2, HMG-CoA-Reduktase in HEP G2-Zellkulturen (Homo sapiens, UniProt P04035); assay: Inhibition of 14C-sodium acetate incorporation into cholesterol in HEP G2 cell cultures; format: cell-based; conditions: for IC70: HepG2, 3 h, read-out: IC₇₀; for relative Wirkstärke: Mevinolin-Natrium = 100
T2 sequence (P04035 1-888): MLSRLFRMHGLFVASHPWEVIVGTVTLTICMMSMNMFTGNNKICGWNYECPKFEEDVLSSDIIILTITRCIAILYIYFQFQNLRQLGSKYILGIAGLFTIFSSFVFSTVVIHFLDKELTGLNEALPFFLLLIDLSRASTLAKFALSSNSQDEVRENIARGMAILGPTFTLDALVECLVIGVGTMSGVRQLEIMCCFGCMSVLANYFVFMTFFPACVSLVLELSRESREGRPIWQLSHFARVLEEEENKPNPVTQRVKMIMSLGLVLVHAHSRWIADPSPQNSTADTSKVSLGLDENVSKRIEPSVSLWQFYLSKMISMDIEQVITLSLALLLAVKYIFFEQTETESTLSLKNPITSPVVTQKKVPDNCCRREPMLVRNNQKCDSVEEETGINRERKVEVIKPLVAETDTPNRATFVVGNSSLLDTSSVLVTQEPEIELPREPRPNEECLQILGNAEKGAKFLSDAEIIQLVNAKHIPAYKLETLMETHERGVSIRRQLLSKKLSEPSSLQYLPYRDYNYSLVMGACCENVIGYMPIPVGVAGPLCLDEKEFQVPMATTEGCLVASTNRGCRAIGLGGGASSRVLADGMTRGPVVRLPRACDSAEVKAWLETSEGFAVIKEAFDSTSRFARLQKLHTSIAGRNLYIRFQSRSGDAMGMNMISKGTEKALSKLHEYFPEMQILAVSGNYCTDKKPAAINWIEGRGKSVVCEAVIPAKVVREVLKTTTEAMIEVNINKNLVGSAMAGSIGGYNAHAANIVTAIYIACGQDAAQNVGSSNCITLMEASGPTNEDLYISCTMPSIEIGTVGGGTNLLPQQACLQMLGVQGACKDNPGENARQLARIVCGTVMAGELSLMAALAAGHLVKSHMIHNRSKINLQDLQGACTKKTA
Description: 2) Supprimierung bzw. Inhibierung der HMG-CoA-Reduktase in HEP G2-Zellkulturen (einer Human-Hepatoma-Zell-Linie) Es erfolgte eine Bestimmung der Inhibition des Einbaus von ¹⁴C-Natriumacetat in Cholesterin. Monolayers von HEP G2-Zellen in RPMJ 1640 Medium mit 10 % von Lipiden befreitem fötalem Kälberserum wurden 1 Stunde mit verschiedenen Konzentrationen der Natriumsalze der Dihydroxycarbonsäuren der Formel II präinkubiert. Nach Zugabe von ¹⁴C-markiertem Natriumacetat wurde die Inkubation 3 Std. fortgesetzt. Tritium-markiertes Cholesterin wurde als interner Standard zugefügt und ein Aliquot der Zellen alkalisch verseift. Die Lipide wurden mit Chloroform/Methanol 2:1 extrahiert. Nach Zugabe von Carrier-Cholesterin wurde das Lipidgemisch präparativ auf DC-Platten mit Chloroform/Aceton 9:1 getrennt. Die Cholesterin-Zone wurde durch Anfärben mit Joddampf sichtbar gemacht, außerdem mit einem DC-Radioscanner detektiert und dann abgeschabt. Die Menge ¹⁴C-Cholesterin wurde szintigraphisch bestimmt. In einem anderen Aliquot der Zell-Monolayers wurde (zur Berechnung der ¹⁴C-Cholesterinbiosynthese pro mg Zell-Protein) das Zellprotein gemessen. Dieselbe Prozedur wurde mit Zellen der gleichen Kultur ohne Präinkubation mit einer Testverbindung durchgeführt (sogenannte "Lösungsmittelkontrolle"). Die Wirkstärke der Testverbindungen wurde bestimmt durch Vergleich des biosynthetisierten ¹⁴C-Cholesterins in Testläufen und bei "Lösungsmittelkontrolle". Die Wirkstärke wurde auf der Basis von Mevinolin-Natriumsalz als externer Standard berechnet. […] Die gemessenen IC's für Testverbindungen (Natriumsalze der Dihydroxycarbonsäuren der Formel II) (Tab. 2) wurden um die Abweichung von Mevinolin-Natrium von seinem Durchschnittswert korrigiert. Mevinolin-Natrium wurde eine relative Wirkstärke von 100 zugewiesen.

[3] = value outside parentheses (matches ratio of IC50 values)

Row | SMILES | IC50 [1] [µM] | IC70 ([2]; mean value over different cell batches, external standard) [µM] | relative Wirkstärke [2, 3] | IC70 ([2]; concentration for 70 % inhibition, sodium salts, corrected for the deviation of Mevinolin-Natrium from its mean value) [µM] | relative Wirkstärke ([2]; value in parentheses (matches ratio of IC70 values))
1 | CC(C)c1cc(C2CCCCC2)cc(-c2ccc(F)cc2)c1OC[C@@H](O)C[C@@H](O)CC(=O)O [Beispiel 8e, 3(R),5(S)-Dihydroxy-6-[2-isopropyl-4-cyclohexyl-6-(4-fluorphenyl)-phenoxy]-hexansäure-Natriumsalz] | 0.0052 | – | – | – | –
2 | CCC(C)C(=O)OC1CC(C)C=C2C=CC(C)C(CCC(O)CC(O)CC(=O)O)C21 (centres unmarked) [Mevinolin-Natriumsalz, reference compound] | – | 0.15 | – | – | –
3 | CC(C)c1cc(-c2ccc(F)cc2)cc(-c2ccc(F)cc2)c1OC[C@@H](O)C[C@@H](O)CC(=O)O [Beispiel 8c, 3(R),5(S)-Dihydroxy-6-[2-isopropyl-4,6-bis-(4-fluorphenyl)-phenoxy]-hexansäure-Natriumsalz] | 0.017 | – | 56 | – | –
4 | CC(C)c1cc(-c2ccc(F)cc2)c(OC[C@@H](O)C[C@@H](O)CC(=O)O)c(C(C)C)c1 [Beispiel 8a, 3(R),5(S)-Dihydroxy-6-[2-(4-fluorphenyl)-4,6-diisopropylphenoxy]-hexansäure-Natriumsalz] | 0.0023 | – | 185 | 0.07 | 214
5 | CC(C)c1cc(-c2ccc(F)cc2)cc(-c2ccc(F)cc2)c1SC[C@@H](O)C[C@@H](O)CC(=O)O [Beispiel 8g, 3(R),5(S)-Dihydroxy-6-[2-isopropyl-4,6-bis-(4-fluorphenyl)-thiophenoxy]-hexansäure-Natriumsalz] | 0.036 | – | – | – | –
6 | CC(C)c1cc(-c2ccc(F)cc2)c(SC[C@@H](O)C[C@@H](O)CC(=O)O)c(C(C)C)c1 [Beispiel 8f, 3(R),5(S)-Dihydroxy-6-[2-(4-fluorphenyl)-4,6-diisopropylthiophenoxy]-hexansäure-Natriumsalz] | 0.0048 | – | – | – | –
7 | CC(C)c1cc(-c2ccccc2)cc(-c2ccc(F)cc2)c1OC[C@@H](O)C[C@@H](O)CC(=O)O [Beispiel 8d, 3(R),5(S)-Dihydroxy-6-[2-isopropyl-4-phenyl-6-(4-fluorphenyl)-phenoxy-]-hexansäure-Natriumsalz] | 0.023 | – | 53 | – | –
8 | CC(C)c1cc(C(C)(C)C)cc(-c2ccc(F)cc2)c1OC[C@@H](O)C[C@@H](O)CC(=O)O [Beispiel 8b, 3(R),5(S)-Dihydroxy-6-[2-isopropyl-4-tert.-butyl-6-(4-fluorphenyl)-phenoxy]-hexansäure-Natriumsalz] | > 0.1 | – | < 1 | – | –
